Measured values reported in PubChem BioAssay (NCI).
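Each compound was tested at five concentrations against cells in 96-well plates for 48 hours. The concentration for full growth arrest is given as TGI.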

Legend:
Test in all cases: NCI-60 cell line screen, 48 h
SK-MEL-2 melanoma = test system: SK-MEL-2 melanoma
SK-OV-3 ovarian = test system: SK-OV-3 ovarian
SNB-19 CNS = test system: SNB-19 CNS
OVCAR-4 ovarian = test system: OVCAR-4 ovarian
ACHN renal = test system: ACHN renal
BT-549 breast = test system: BT-549 breast
HCC-2998 colon = test system: HCC-2998 colon
SNB-75 CNS = test system: SNB-75 CNS
TK-10 renal = test system: TK-10 renal
T-47D breast = test system: T-47D breast
OVCAR-8 ovarian = test system: OVCAR-8 ovarian
IGROV1 ovarian = test system: IGROV1 ovarian
PC-3 prostate = test system: PC-3 prostate
RPMI-8226 leukemia = test system: RPMI-8226 leukemia
HCT-116 colon = test system: HCT-116 colon
UO-31 renal = test system: UO-31 renal
HCT-15 colon = test system: HCT-15 colon
HT29 colon = test system: HT29 colon
MCF7 breast = test system: MCF7 breast
HS 578T breast = test system: HS 578T breast
M14 melanoma = test system: M14 melanoma
NCI-H226 lung = test system: NCI-H226 lung
MDA-MB-231 breast = test system: MDA-MB-231 breast
SF-539 CNS = test system: SF-539 CNS
NCI-H460 lung = test system: NCI-H460 lung
SF-295 CNS = test system: SF-295 CNS
HL-60(TB) leukemia = test system: HL-60(TB) leukemia
MDA-MB-435 = test system: MDA-MB-435
U251 CNS = test system: U251 CNS
OVCAR-3 ovarian = test system: OVCAR-3 ovarian
SK-MEL-28 melanoma = test system: SK-MEL-28 melanoma
SW-620 colon = test system: SW-620 colon
MDA-N = test system: MDA-N
786-0 renal = test system: 786-0 renal
MOLT-4 leukemia = test system: MOLT-4 leukemia
LOX IMVI melanoma = test system: LOX IMVI melanoma
NCI/ADR-RES ovarian = test system: NCI/ADR-RES ovarian
A549 NSCLC = test system: A549 NSCLC
SF-268 CNS = test system: SF-268 CNS
NCI-H23 lung = test system: NCI-H23 lung
MALME-3M melanoma = test system: MALME-3M melanoma
DU-145 prostate = test system: DU-145 prostate
SK-MEL-5 melanoma = test system: SK-MEL-5 melanoma
COLO 205 colon = test system: COLO 205 colon
EKVX NSCLC = test system: EKVX NSCLC
CCRF-CEM leukemia = test system: CCRF-CEM leukemia
KM12 colon = test system: KM12 colon
SN12C renal = test system: SN12C renal
A498 renal = test system: A498 renal
OVCAR-5 ovarian = test system: OVCAR-5 ovarian
CAKI-1 renal = test system: CAKI-1 renal
UACC-62 melanoma = test system: UACC-62 melanoma
HOP-92 NSCLC = test system: HOP-92 NSCLC
NCI-H522 lung = test system: NCI-H522 lung
HOP-62 NSCLC = test system: HOP-62 NSCLC
UACC-257 melanoma = test system: UACC-257 melanoma
K-562 leukemia = test system: K-562 leukemia
SR leukemia = test system: SR leukemia

`O=c1[nH]c(Nc2ccc(F)c(Cl)c2)nc2nc[nH]c12` was tested, and the TGI (SK-MEL-2 melanoma) was > 100 µM, the TGI (SK-OV-3 ovarian) was > 100 µM and the TGI (SNB-19 CNS) was > 100 µM. The TGI (OVCAR-4 ovarian) was > 100 µM, the TGI (ACHN renal) was > 100 µM and the TGI (BT-549 breast) was > 100 µM. For the same compound, the TGI (HCC-2998 colon) was > 100 µM, the TGI (SNB-75 CNS) was 97.8 µM and the TGI (TK-10 renal) was > 100 µM. The TGI (T-47D breast) was > 100 µM, the TGI (OVCAR-8 ovarian) was > 100 µM and the TGI (IGROV1 ovarian) was > 100 µM. For the same compound, the TGI (PC-3 prostate) was > 100 µM, the TGI (RPMI-8226 leukemia) was > 100 µM and the TGI (HCT-116 colon) was > 100 µM. For the same compound, the TGI (UO-31 renal) was > 100 µM, the TGI (HCT-15 colon) was > 100 µM and the TGI (HT29 colon) was > 100 µM. For the same compound, the TGI (MCF7 breast) was > 100 µM, the TGI (HS 578T breast) was > 100 µM and the TGI (M14 melanoma) was > 100 µM. The TGI (NCI-H226 lung) was > 100 µM, the TGI (MDA-MB-231 breast) was > 100 µM and the TGI (SF-539 CNS) was > 100 µM. The TGI (NCI-H460 lung) was > 100 µM, the TGI (SF-295 CNS) was > 100 µM and the TGI (HL-60(TB) leukemia) was > 100 µM. The TGI (MDA-MB-435) was > 100 µM, the TGI (U251 CNS) was > 100 µM and the TGI (OVCAR-3 ovarian) was > 100 µM. The TGI (SK-MEL-28 melanoma) was > 100 µM, the TGI (SW-620 colon) was > 100 µM and the TGI (MDA-N) was > 100 µM. The TGI (786-0 renal) was > 100 µM, the TGI (MOLT-4 leukemia) was 39.5 µM and the TGI (LOX IMVI melanoma) was > 100 µM. For the same compound, the TGI (NCI/ADR-RES ovarian) was > 100 µM, the TGI (A549 NSCLC) was > 100 µM and the TGI (SF-268 CNS) was > 100 µM. The TGI (NCI-H23 lung) was > 100 µM, the TGI (MALME-3M melanoma) was > 100 µM and the TGI (DU-145 prostate) was > 100 µM. For the same compound, the TGI (SK-MEL-5 melanoma) was > 100 µM, the TGI (COLO 205 colon) was > 100 µM and the TGI (EKVX NSCLC) was > 100 µM. For the same compound, the TGI (CCRF-CEM leukemia) was > 100 µM, the TGI (KM12 colon) was > 100 µM and the TGI (SN12C renal) was > 100 µM. For the same compound, the TGI (A498 renal) was > 100 µM, the TGI (OVCAR-5 ovarian) was > 100 µM and the TGI (CAKI-1 renal) was > 100 µM. For the same compound, the TGI (UACC-62 melanoma) was > 100 µM, the TGI (HOP-92 NSCLC) was > 100 µM and the TGI (NCI-H522 lung) was > 100 µM. The TGI (HOP-62 NSCLC) was > 100 µM and the TGI (UACC-257 melanoma) was > 100 µM.
In the case of `Cc1cc(C)nc(NS(=O)(=O)c2ccc(Nc3nncc(=O)n3N)cc2)n1`, the TGI (SK-MEL-2 melanoma) is reported as > 100 µM, the TGI (SK-OV-3 ovarian) is reported as > 100 µM and the TGI (SNB-19 CNS) is reported as 83 µM. The TGI (OVCAR-4 ovarian) was 32.9 µM, the TGI (ACHN renal) was > 100 µM and the TGI (BT-549 breast) was 32.6 µM. The TGI (HCC-2998 colon) was 80.7 µM, the TGI (T-47D breast) was 38.3 µM and the TGI (OVCAR-8 ovarian) was 29.2 µM. The TGI (IGROV1 ovarian) was 33.1 µM, the TGI (PC-3 prostate) was 54.9 µM and the TGI (RPMI-8226 leukemia) was 49.8 µM. The TGI (HCT-116 colon) was 87.8 µM, the TGI (UO-31 renal) was 33.9 µM and the TGI (HCT-15 colon) was 28.8 µM. For the same compound, the TGI (HT29 colon) was 32.2 µM, the TGI (MCF7 breast) was 30.3 µM and the TGI (HS 578T breast) was > 100 µM. The TGI (M14 melanoma) was > 100 µM, the TGI (SF-539 CNS) was > 100 µM and the TGI (NCI-H460 lung) was > 100 µM. For the same compound, the TGI (SF-295 CNS) was > 100 µM, the TGI (HL-60(TB) leukemia) was 40.2 µM and the TGI (MDA-MB-435) was 33 µM. For the same compound, the TGI (U251 CNS) was 31.5 µM, the TGI (OVCAR-3 ovarian) was 29.8 µM and the TGI (SK-MEL-28 melanoma) was 74.6 µM. It also gave a TGI (SW-620 colon) of 44.2 µM, a TGI (MDA-N) of 30 µM and a TGI (786-0 renal) of 29.2 µM. The TGI (MOLT-4 leukemia) was 48.6 µM, the TGI (LOX IMVI melanoma) was 27.7 µM and the TGI (NCI/ADR-RES ovarian) was 55.9 µM. The TGI (A549 NSCLC) was > 100 µM, the TGI (SF-268 CNS) was 39.7 µM and the TGI (NCI-H23 lung) was 28.6 µM. The TGI (MALME-3M melanoma) was 41.6 µM, the TGI (DU-145 prostate) was > 100 µM and the TGI (SK-MEL-5 melanoma) was 33.1 µM. The TGI (COLO 205 colon) was > 100 µM, the TGI (EKVX NSCLC) was 62.7 µM and the TGI (CCRF-CEM leukemia) was 11.6 µM. The TGI (KM12 colon) was > 100 µM, the TGI (A498 renal) was > 100 µM and the TGI (OVCAR-5 ovarian) was 37.2 µM. The TGI (CAKI-1 renal) was 29.5 µM, the TGI (UACC-62 melanoma) was 51.2 µM and the TGI (K-562 leukemia) was 43.9 µM. For the same compound, the TGI (SR leukemia) was 42.4 µM, the TGI (NCI-H522 lung) was 26.2 µM and the TGI (HOP-62 NSCLC) was 34.7 µM. For the same compound, the TGI (UACC-257 melanoma) was 43.9 µM.
